Here are results for three substances from publication PMC5334642, “A Peptide Amphiphile Organogelator of Polar Organic Solvents” (Scientific Reports, 2017).

A short description of data set [1]: Rheology of the gels (strain sweep, frequency sweep, thixotropic test). The class given is physicochemical. How it is done: […]-C8 therefore forms a very stiff but brittle gel.
An aliquot (550 μL) of this solution was then cast onto an Anton Paar MCR 302 rheometer (parallel plate geometry, 25 mm diameter, 1 mm gap) and left to gel over the course of 4 h. A solvent trap and Peltier hood was used to prevent any evaporation during gelation. Frequency sweeps were performed from 0.1–10 Hz, at a constant strain of 0.2% and three repeats performed on separate samples. Strain sweeps were performed from 0.1–100% at a constant frequency of 1 Hz.

Data set [2] can be described thus: Gelation by inversion test. As to conditions: for minimum gel concentration (MGC): inversion test.
Data set [3] is described as follows: Solubility in water and organic solvents.
For data set [4] the following is noted: hydrogel of similar PA; cited from earlier work. The text has this:
This is consistent with previous findings that increasing the proportion of valines in the β-sheet forming region of a PA results in an increase in gel stiffness. With PAs such as […]16, the β-sheet signal in the CD spectrum is red-shifted by a magnitude that inversely correlates with gel stiffness, and this has been attributed to the extent of twisting of the sheets, i.e., stiffer gels involve stronger peptide interactions with the least t ...

As to N-Octanoic acid-Val3-His-Gly-Val3, the “gel stiffness (approximated by G')” value in data set [1] (0.20 wt.% gel in 50% acetonitrile/water, frequency sweep 0.1-10 Hz at constant 0.2% strain, three repeats on separate samples) is recorded as 1.5 × 10^5 Pa. In data set [1] (DMF organogel), the “cross-over point under oscillatory strain” value is reported as “no cross-over point observed”. Also, the “strain at which mechanical properties deviate from the linear viscoelastic region” value in data set [1] (gel from 0.20 wt.% solution in 50% acetonitrile/water, strain sweep 0.1-100% at constant frequency of 1 Hz) is recorded as “less than 1 % strain”. The “cross-over point from gel to liquid (G' = G'')” value in data set [1] (gel from 0.20 wt.% solution in 50% acetonitrile/water, strain sweep at constant frequency of 1 Hz) is listed as 3 % strain. In addition, the “minimum gel concentration (MGC)” value in data set [2] (DMF) and in data set [2] (acetone) was 0.06 wt.% each time. Besides, in data set [2] (chloroform solution), the “gel formation in chloroform” value is given as “did not form gels”. For the same substance, the “gel formation in dichloromethane” value in data set [2] (dichloromethane solution) is given as “did not form gels”. In addition, the “gel formation in dimethyl sulfoxide” value in data set [2] (dimethyl sulfoxide solution) was “did not form gels”. Also, the “gel formation in ethanol” value in data set [2] (ethanol solution) is “did not form gels”. Further, in data set [2] (isopropanol solution), the “gel formation in isopropanol” value was “did not form gels”. The “gel formation in methanol” value in data set [2] (methanol solution) is “did not form gels”. In data set [2] (toluene solution), the “gel formation in toluene” value is “did not form gels”. Moreover, the “solubility in DMF” value in data set [3] (DMF) was “dissolved”. Also, in data set [3] (acetonitrile), the solubility in acetonitrile result was “insoluble”. Besides, the solubility in dichloromethane entry in data set [3] (dichloromethane) is “dissolved”. Further, in data set [3] (dimethyl sulfoxide), the “solubility in dimethyl sulfoxide” value is “dissolved”. Further, in data set [3] (ethyl acetate, heating to reflux temperatures and sonicating for up to one hour), the “solubility in ethyl acetate” value was “did not dissolve”.
Take N- Val3-His-Gly-Val3: in data set [2] (acetonitrile/water mixtures), the “gelation of acetonitrile/water solutions” value was “did not gelate”. In addition, in data set [3] (mixtures of acetonitrile and water, VVVGHVVV-C8 with sonication), the “solubility in acetonitrile/water mixtures” value is “soluble”. Besides, the solubility in water result in data set [3] (water, regardless of pH, temperature and sonication) is “peculiarly soluble in water”.
In the case of “EEEAAAVVV-C16 [previously reported hydrogel-forming peptide amphiphile studied by the Stupp and Nguyen groups]”, in data set [4], the gel stiffness is < 10^4 Pa.
